Source: US11191820B2, “Method for inducing early T memory response with short peptides anti-tumor vaccine” (OSE IMMUNOTHERAPEUTICS, priority 2015, dated 2021)

Columns and labels:
Assay type in all cases: in vivo, human
central memory T cells [1] = assay: Cultured IFN-γ ELISPOT after 10-day in vitro stimulation of PBMC, phase 1/2 colon cancer trial of OSE-2101; set-up: key to net SFC of vaccine positive CTL responses: —, indicates SFC response did not meet criteria and vaccine response was negative; settings: for Mean SFC: 10 colon patients
Protocol: (§1) Clinical study design. Both trials were designed as phase 1/2, open label, multi-center, single dose, multiple administration studies to evaluate the safety and immunogenicity of the OSE-2101 immunotherapy. Patients were treated with 1 ml OSE-2101 every 3 weeks for a total of six doses. Each dose was administered subcutaneously in the same vicinity in the deltoid or upper thigh region, or at a contralateral site if local side-effects were observed. The study duration for each completed patient was 18 weeks. Clinical responses or patient survival were not measured in either phase 1/2 studies.
(§2) Clinical sample processing. Blood or leukapheresis product was obtained from patients at the pre-treatment, the Week 9 and Week 18 time points, 3 weeks after the third and sixth dose of OSE-2101 respectively. Peripheral blood mononuclear cells (PBMC) were isolated from samples within 24 hours of collection using a FICOLL-PAQUE density gradient and cryopreserved in containers designed to ensure optimal freezing (Mr. Frosty, Nalgene). For use, cells were rapidly thawed at 37° C. then transferred to human AB serum-containing medium for work-up.
(§3) Measurement of central T memory cells responses and T effector memory cells. The CTL responses in 16 total patients (10 colon and six NSCLC) were monitored for CTL responses against each epitope and against the wild-type epitope of epitopes analogs. For each patient, the pre-treatment, Week 9 and Week 18 time points were batch-tested in the same experiment to allow pre- versus post-treatment response comparison in the same experiment. Central T memory cells responses were measured using an IFN-γ enzyme-linked immunospot (cultured ELISPOT) assay following in vitro stimulation of PBMC for 10 days with each vaccine epitope. Briefly, PBMC from each time point were stimulated on day 0 with 10 μg/ml of each epitope individually in replicate in 48-well culture plates (2×10^6 PBMC/well). All cultures were fed with rIL-2 (Endogen, Woburn, Mass.; 10 U/ml final concentration) on days 1, 4 and 7. Ten days after initiation of culture, cells were harvested and tested for activity against specific vaccine peptides and corresponding wild-type peptides of vaccine analogs in the T memory ELISPOT assay. Cells were tested in Millipore IP 96-well plates pre-coated with mouse anti-human IFN-γ antibody (Mabtech USA, Cincinnati, Ohio). Five×10^4 cells and 1.25×10^4 cells from each culture were plated in triplicate wells together with 10^5 irradiated autologous PBMC and 10 μg/ml peptide. As a control, CTL were also tested against an irrelevant HLA-A2.1-binding HBV peptide. After 20 hours incubation, T memory ELISPOT plates were developed by performing sequential incubations with biotinylated anti-human IFN-γ antibody (Mabtech USA), Avidin-Peroxidase Complex (APC, Vector Laboratories, Burlingame, Calif.), and 3-amino-9-ethyl carbazole (AEC) substrate (Sigma Aldrich, St. Louis, Mo.). Spot-forming cells (SFC) were enumerated using a computer-assisted image analysis system (Zeiss KS ELISPOT Reader, Carl Zeiss MicroImaging, Thornwood, N.J.). Data is reported as the net SFC per 5×10^4 cells after subtracting spots induced with the irrelevant HBV peptide.

central memory T cells [2] = assay: Central memory T cell cultured ELISPOT, phase 2 trial in advanced NSCLC
Protocol: CTL Immune responses measured though cultured Elispot. The immunogenicity was measured in Phase 2 clinical trial on cryopreserved PBMC from each test sample were thawed in 5% human culture medium (RPMI-1640 medium with 25 mM HEPES, supplemented with 5% human AB serum, 4 mM L-glutamine, 0.5 mM sodium pyruvate, 0.1 mM MEM non-essential amino acids, 100 μg/ml streptomycin, and 100 U/ml penicillin) containing 30 μg/ml DNAase. After centrifugation for 5 minutes at 1200 rpm, the cell pellets were resuspended in 5% human culture medium and washed 2 times. For the central Memory T cell cultured ELISPOT assay, 2×10^6/ml PBMC were placed in replicate wells in a 48-well plates and stimulated for 10 days with 10 μg/ml of each peptide. As a positive control, PBMC were also stimulated with a pool of recall viral peptides. Human rIL2 (10 U/ml) was added to the peptide-stimulated cultures at day 1, day 4 and day 7. After 10 days the stimulated cells were harvested and plated at a concentration of 5×10^4/well. Assay wells also received irradiated autologous PBMC (1×10^5/well) and 10 μg/ml peptide, either the vaccine peptide, irrelevant peptide or positive control peptides. Cells stimulated in vitro with each analog epitope were also tested against the corresponding wild-type epitope.
Data analysis and acceptance criteria. Mean and standard deviation (SD) of spots in replicate wells were calculated in all assays by transferring raw ELISPOT data from each experiment to an Excel-based computer program. Positive vaccine-induced T-cell responses were determined according to the criteria described below.
Acceptance Criteria for peptide-Induced specific T-cell response through central memory T cells: The positive criteria for CTL responses used in the phase 2 trial was identical to the criteria in the phase 1/2 trials which was established prospectively after analyzing the variability of pre-treatment responses in patients against each vaccine epitope and the irrelevant HBV control epitope. A positive peptide-induced CTL/T memory response to a given epitope met all of the following conditions: 1) was greater than 5 SFC above the irrelevant epitope response, 2) was greater than the mean SFC of the irrelevant epitope response, plus 2 SD, and 3) was two-fold greater than the SFC response in the pre-vaccination sample from the same patient, plus 2 SD. The inclusion of “plus two standard deviations” was used to accommodate the assay variability and served to increase the criteria stringency.

central memory T cells [3] = assay: Cultured IFN-γ ELISPOT after 10-day in vitro stimulation of PBMC, phase 1/2 NSCLC trial of OSE-2101; set-up: key to net SFC of vaccine positive CTL responses: —, indicates SFC response did not meet criteria and vaccine response was negative; settings: for Mean SFC / No. Positive Responses: 6 NSCLC patients
Protocol: as §1, §2, §3

YLQLVFGIEV [MAGE2.157 WT]
Mean SFC (central memory T cells [1]; Week 9): 246.0 SFC per 50,000 cells
Mean SFC (central memory T cells [1]; Week 18): 418.1 SFC per 50,000 cells
net SFC of vaccine positive CTL responses (central memory T cells [1]; colon patient 551, Week 9): —
net SFC of vaccine positive CTL responses (central memory T cells [1]; colon patient 551, Week 18): 45.7 SFC per 50,000 cells
net SFC of vaccine positive CTL responses (central memory T cells [1]; colon patient 601, Week 9): —
net SFC of vaccine positive CTL responses (central memory T cells [1]; colon patient 601, Week 18): —
net SFC of vaccine positive CTL responses (central memory T cells [1]; colon patient 602, Week 9): —
net SFC of vaccine positive CTL responses (central memory T cells [1]; colon patient 602, Week 18): —
net SFC of vaccine positive CTL responses (central memory T cells [1]; colon patient 603, Week 9): 320.0 SFC per 50,000 cells
net SFC of vaccine positive CTL responses (central memory T cells [1]; colon patient 603, Week 18): —
net SFC of vaccine positive CTL responses (central memory T cells [1]; colon patient 604, Week 9): —
net SFC of vaccine positive CTL responses (central memory T cells [1]; colon patient 604, Week 18): —
net SFC of vaccine positive CTL responses (central memory T cells [1]; colon patient 605, Week 9): —
net SFC of vaccine positive CTL responses (central memory T cells [1]; colon patient 605, Week 18): —
net SFC of vaccine positive CTL responses (central memory T cells [1]; colon patient 606, Week 9): —
net SFC of vaccine positive CTL responses (central memory T cells [1]; colon patient 606, Week 18): 24.7 SFC per 50,000 cells
net SFC of vaccine positive CTL responses (central memory T cells [1]; colon patient 607, Week 9): 172.0 SFC per 50,000 cells
net SFC of vaccine positive CTL responses (central memory T cells [1]; colon patient 607, Week 18): 1184.0 SFC per 50,000 cells
net SFC of vaccine positive CTL responses (central memory T cells [1]; colon patient 608, Week 9): —
net SFC of vaccine positive CTL responses (central memory T cells [1]; colon patient 608, Week 18): —
net SFC of vaccine positive CTL responses (central memory T cells [1]; colon patient 609, Week 9): —
net SFC of vaccine positive CTL responses (central memory T cells [1]; colon patient 609, Week 18): —
% of patients with positive CTL/central memory T cell response (central memory T cells [2]; phase 2, month 9): 57%
patients with positive CTL/central memory T cell response / patients tested (central memory T cells [2]; phase 2, month 9): 4/7
% of patients with positive CTL/central memory T cell response (central memory T cells [2]; phase 2, month 12): 50%
patients with positive CTL/central memory T cell response / patients tested (central memory T cells [2]; phase 2, month 12): 2/4
% of patients with positive CTL/central memory T cell response (central memory T cells [2]; phase 2, week 9): 27%
patients with positive CTL/central memory T cell response / patients tested (central memory T cells [2]; phase 2, week 9): 9/33
% of patients with positive CTL/central memory T cell response (central memory T cells [2]; phase 2, week 18): 28%
patients with positive CTL/central memory T cell response / patients tested (central memory T cells [2]; phase 2, week 18): 9/32
% of patients with positive CTL/central memory T cell response (central memory T cells [2]; phase 2, week 30): 43%
patients with positive CTL/central memory T cell response / patients tested (central memory T cells [2]; phase 2, week 30): 10/23
Mean SFC (central memory T cells [3]; Week 9): 30.0 SFC per 50,000 cells
No. Positive Responses (central memory T cells [3]; Week 9): 2
Mean SFC (central memory T cells [3]; Week 18): 66.8 SFC per 50,000 cells
No. Positive Responses (central memory T cells [3]; Week 18): 2
net SFC of vaccine positive CTL responses (central memory T cells [3]; NSCLC patient 201, Week 9): —
net SFC of vaccine positive CTL responses (central memory T cells [3]; NSCLC patient 201, Week 18): —
net SFC of vaccine positive CTL responses (central memory T cells [3]; NSCLC patient 502, Week 9): 9.3 SFC per 50,000 cells
net SFC of vaccine positive CTL responses (central memory T cells [3]; NSCLC patient 502, Week 18): —
net SFC of vaccine positive CTL responses (central memory T cells [3]; NSCLC patient 504, Week 9): 50.7 SFC per 50,000 cells
net SFC of vaccine positive CTL responses (central memory T cells [3]; NSCLC patient 504, Week 18): 124.7 SFC per 50,000 cells
net SFC of vaccine positive CTL responses (central memory T cells [3]; NSCLC patient 505, Week 9): —
net SFC of vaccine positive CTL responses (central memory T cells [3]; NSCLC patient 505, Week 18): —
net SFC of vaccine positive CTL responses (central memory T cells [3]; NSCLC patient 532, Week 9): —
net SFC of vaccine positive CTL responses (central memory T cells [3]; NSCLC patient 532, Week 18): —
net SFC of vaccine positive CTL responses (central memory T cells [3]; NSCLC patient 651, Week 9): —
net SFC of vaccine positive CTL responses (central memory T cells [3]; NSCLC patient 651, Week 18): 9.0 SFC per 50,000 cells

RLLQETELV [HER2-689-WT]
% of patients with positive CTL/central memory T cell response (central memory T cells [2]; phase 2, month 9): 0%
patients with positive CTL/central memory T cell response / patients tested (central memory T cells [2]; phase 2, month 9): 0/7
% of patients with positive CTL/central memory T cell response (central memory T cells [2]; phase 2, month 12): 0%
patients with positive CTL/central memory T cell response / patients tested (central memory T cells [2]; phase 2, month 12): 0/4
% of patients with positive CTL/central memory T cell response (central memory T cells [2]; phase 2, week 9): 36%
patients with positive CTL/central memory T cell response / patients tested (central memory T cells [2]; phase 2, week 9): 4/11
% of patients with positive CTL/central memory T cell response (central memory T cells [2]; phase 2, week 18): 27%
patients with positive CTL/central memory T cell response / patients tested (central memory T cells [2]; phase 2, week 18): 3/11
% of patients with positive CTL/central memory T cell response (central memory T cells [2]; phase 2, week 30): 0%
patients with positive CTL/central memory T cell response / patients tested (central memory T cells [2]; phase 2, week 30): 0/6
